According to patent US7723023B2, “Use of intrinsic reporters of cell signaling for high content drug profiling and toxicity screening” (Mount Sinai School of Medicine, priority 2001, dated 2010):

Key:
[1] = test system: GnRHR-expressing LβT2 gonadotrope cell line; experiment: SYBR green real-time PCR of transcripts regulated by GnRH in LβT2 cells; assay type: cell-based, mouse; settings: 1 hour
Procedure: Cell Culture and Sample Preparation: LβT2 cells were obtained and maintained at 37° C. in 5% CO2 in humidified air in DMEM (Mediatech) containing 10% fetal bovine serum (Gemini). For experiments. 40-50×10^6 cells were seeded in 15 cm dishes. The medium was replaced 21 hours later with DMEM containing 25 mM HEPES (Mediatech) and glutamine. 18 hours later, the cells were treated with 100 nM GnRH or vehicle and were returned to the CO2 incubator for 1 hour. The incubation was stopped by aspirating the incubation medium and adding 10 ml of lysis buffer (4M guanidinium thiocyanate, 25 mM sodium citrate, pH 7.0, 0.5% N-lauroyl-sarcosine, and 0.1 M 2-mercaptoethanol). Total RNA was isolated according to the method of Chomczynski and Sacchi (1987) supra. Approximately 400 μg total RNA was obtained from each plate.
Real Time PCR. The protocol of Example 1 above, was used. Briefly, […] total RNA was converted into cDNA and […] (approximately 500 pg) was utilized for 40 cycle three-step PCR in an ABI Prism 7700 with 20 mM Tris pH 8.4, 50 mM KCL, 3 mM MgCl2, 200 μM dNTPs, 0.5×SYBR® green (Molecular Probes), […] primer and 0.5 U Platinum Taq (Life Technologies). Amplicon size and reaction specificity was confirmed by agarose gel electrophoresis. The number of target copies in each sample was interpolated from its detection threshold (CT) value using a plasmid or purified PCR product standard curve included on each plate. The sequence of the 60 primer sets utilized can be found in supplementary material. Each transcript in each sample was assayed 5 times and the median CT values were used for analysis.
Confirmation of Gene Regulation by Real-Time PCR. The measurement accuracy of the microarray and the biological variability of the transcriptional program identified was evaluated through a validation study comprising real time PCR assays of 60 transcripts, including 26 genes that met the threshold for regulation in the microarray assay. To generate accurate and precise reference measurements of these genes, 5 measurements were made of each gene in each RNA sample and the measurements were calibrated with a standard curve included on each PCR plate (FIG. 4). Nine experimental pairs of vehicle and GnRH-treated cultures were tested, including the microarray assayed samples. 100% (17 of 17) of the gene changes showing >1.6-fold change on the microarray and 66% (6 of 9) of gene changes showing between 1.3 and 1.6-fold changes were confirmed by PCR. […] Because the threshold was set at a 1.3-fold change, these genes are considered to be not confirmed (see discussion below).

[2] = test system: gonadotrope cell line LβT2 cells; experiment: Time course of IRC response to GnRH in presence and absence of cyclohexamide (CHX); assay type: cell-based, mouse; settings: 100 nM GnRH, protein synthesis inhibitor cyclohexamide
Procedure: The cells were treated with 100 nM GnRH in the presence and absence of the inhibitor of protein synthesis, cyclohexamide (CHX). […] No other proteins need to be synthesized to induce activation of this IRC. The use of a time course such as that illustrated allow selection of the optimum time point or time points after stimulation at which to assay the IRCs to provide the most complete map of the cell global signal transduction response.
The proper time point or time points after exposure can be determined experimentally in any system by performing a time course of the gene response. If a single time point after exposure is assayed, it is best to select a time at which most IRCs are continuing to show an increase in the level of expression. This is usually between 30 minutes and 1 hour.

[3] = 100 nM GnRH vs vehicle, LβT2 cells
[4] = gene did not meet the criteria on the microarray, 100 nM GnRH

gonadotropin releasing hormone [GnRH]
1κB fold-change, SYBR PCR (n = 9) [1, 3]: 2.6 ± 0.2 fold
Egr1 fold-change, SYBR PCR (n = 9) [1, 3]: 390.6 ± 83.9 fold
Egr2 fold-change, SYBR PCR (n = 9) [1, 3]: 294.7 ± 35.6 fold
Gem fold-change, SYBR PCR (n = 9) [1, 3]: 4.3 ± 0.3 fold
HSP30 fold-change, SYBR PCR (n = 9) [1, 3]: 1.9 ± 0.2 fold
Klf4 fold-change, SYBR PCR (n = 9) [1, 3]: 2.9 ± 0.3 fold
Klf-like EST fold-change, SYBR PCR (n = 9) [1, 3]: 2.5 ± 0.2 fold
LRG21 fold-change, SYBR PCR (n = 9) [1, 3]: 96.8 ± 15.7 fold
MKP1/3CH134 fold-change, SYBR PCR (n = 9) [1, 3]: 3.4 ± 0.4 fold
NMDMC fold-change, SYBR PCR (n = 9) [1, 3]: 1.6 ± 0.3 fold
Nr4a1/nur77 fold-change, SYBR PCR (n = 9) [1, 3]: 49.4 ± 10.1 fold
Nrf2 fold-change, SYBR PCR (n = 9) [1, 3]: 1.5 ± 0.1 fold
PRL1 fold-change, SYBR PCR (n = 9) [1, 3]: 2.1 ± 0.1 fold
Period1 fold-change, SYBR PCR (n = 9) [1, 3]: 4.9 ± 1.1 fold
Rgs2 fold-change, SYBR PCR (n = 9) [1, 3]: 8.7 ± 0.4 fold
TSC22 fold-change, SYBR PCR (n = 9) [1, 3]: 3.3 ± 0.2 fold
c-fos fold-change, SYBR PCR (n = 9) [1, 3]: 52.0 ± 5.8 fold
c-jun fold-change, SYBR PCR (n = 9) [1, 3]: 6.6 ± 0.9 fold
gly96 fold-change, SYBR PCR (n = 9) [1, 3]: 3.8 ± 0.5 fold
ler2/Pip92 fold-change, SYBR PCR (n = 9) [1, 3]: 17.1 ± 2.4 fold
transgelin fold-change, SYBR PCR (n = 9) [1, 3]: 1.8 ± 0.2 fold
β-actin fold-change, SYBR PCR (n = 9) [1, 3]: 1.6 ± 0.1 fold
γ-actin fold-change, SYBR PCR (n = 9) [1, 3]: 3.9 ± 0.4 fold
SCL regulation by real-time PCR [1, 4]: 2.4 fold
STY kinase regulation by real-time PCR [1, 4]: 1.7 fold
glucose transport protein regulation by real-time PCR [1, 4]: 2.2 fold
levels of gly96 in the presence of CHX [2]: increase
